# From publication PMC7411887, “New Paracyclophanylthiazoles with Anti-Leukemia Activity: Design, Synthesis, Molecular Docking, and Mechanistic Studies” (Molecules, 2020)
# Where two headings read alike, the source gives them in different places.
# Experiments:
# NCI-H23 = experiment: NCI five-dose assay; assay type: cell-based; conditions: Non-Small-Cell Lung Cancer NCI-H23
# SK-OV-3 = experiment: NCI five-dose assay; assay type: cell-based; conditions: Ovarian Cancer SK-OV-3
# HOP-92 = experiment: NCI five-dose assay; assay type: cell-based; conditions: Non-Small-Cell Lung Cancer HOP-92
# A549/ATCC = experiment: NCI five-dose assay; assay type: cell-based; conditions: Non-Small-Cell Lung Cancer A549/ATCC
# EKVX = experiment: NCI five-dose assay; assay type: cell-based; conditions: Non-Small-Cell Lung Cancer EKVX
# [1] = test system: P-glycoprotein (Pgp) in MDR-SR Leukemia cell line; experiment: Multidrug resistance assay (Pgp ELISA); assay type: cell-based, human; conditions: relative to control
# NCI-H460 = experiment: NCI five-dose assay; assay type: cell-based; conditions: Non-Small-Cell Lung Cancer NCI-H460
# RPMI-8226 = experiment: NCI five-dose assay; assay type: cell-based; conditions: Leukemia RPMI-8226
# SR cancer cell line = experiment: Annexin V/PI flow cytometry; assay type: cell-based, human; conditions: 24 h, at IC50, second value printed in the panel of Figure 11
# Experimental: Figure 11 Contour diagram of annexin V/PI flow cytometry against SR cancer cell line. […] The test was repeated three times. Following incubation for 24 h, cells were analyzed by flow cytometry after double staining with annexin V/PI.
# CAKI-1 = experiment: NCI five-dose assay; assay type: cell-based; conditions: Renal Cancer CAKI-1
# SW-620 = experiment: NCI five-dose assay; assay type: cell-based, human; conditions: Colon Cancer SW-620
# ACHN = experiment: NCI five-dose assay; assay type: cell-based; conditions: Renal Cancer ACHN
# HCT-116 = experiment: NCI five-dose assay; assay type: cell-based; conditions: Colon Cancer HCT-116
# KM12 = experiment: NCI five-dose assay; assay type: cell-based; conditions: Colon Cancer KM12
# Colon Cancer subpanel = experiment: NCI five-dose assay, subpanel; assay type: cell-based, human; conditions: for GI50: Homo sapiens
# Experimental: (§1) The outcomes were used to form log concentration vs. percentage growth inhibition curves and three response parameters (GI50, total growth inhibition (TGI), and LC50) were calculated for each cell line (Table 2).
# (§2) The criterion for selectivity of a compound depends upon the ratio obtained by dividing the full-panel MID (the average sensitivity of all cell lines toward the test agent) (μM) by the individual subpanel MIDs (μM).
# Renal Cancer subpanel = experiment: NCI five-dose assay, subpanel; assay type: cell-based, human
# Experimental: as §1, §2
# Breast Cancer subpanel = experiment: NCI five-dose assay, subpanel; assay type: cell-based, human; conditions: for GI50: Homo sapiens
# Experimental: as §1, §2
# Ovarian Cancer subpanel = experiment: NCI five-dose assay, subpanel; assay type: cell-based, human; conditions: for GI50: Homo sapiens
# Experimental: as §1, §2
# CNS Cancer subpanel = experiment: NCI five-dose assay, subpanel; assay type: cell-based, human
# Experimental: as §1, §2
# Melanoma subpanel = experiment: NCI five-dose assay, subpanel; assay type: cell-based, human
# Experimental: as §1, §2
# Prostate Cancer subpanel = experiment: NCI five-dose assay, subpanel; assay type: cell-based, human
# Experimental: as §1, §2
# Leukemia subpanel = experiment: NCI five-dose assay, subpanel; assay type: cell-based, human; conditions: for GI50: Homo sapiens
# Experimental: as §1, §2
# UO-31 = experiment: NCI five-dose assay; assay type: cell-based; conditions: Renal Cancer UO-31
# SNB-75 = experiment: NCI five-dose assay; assay type: cell-based; conditions: CNS Cancer SNB-75
# HCC-2998 = experiment: NCI five-dose assay; assay type: cell-based; conditions: Colon Cancer HCC-2998
# [2] = Homo sapiens, read-out: GI50 Concentration/Cell Line
# [3] = Homo sapiens, read-out: LC50 (the source's name)
structure (smiles),measurement,setting,value
COC(=O)C=C1SC(=NNC(=O)c2cc3ccc2CCc2ccc(cc2)CC3)N(c2ccccc2)C1=O [Compound 3a],"LC50 (NCI lethal concentration, 50% cell kill)",NCI-H23; Homo sapiens,8.85 µM
same,GI50,NCI-H23; [2],1.95 µM
same,TGI Concentration/Cell Line,NCI-H23,4.15 µM
same,"LC50 (NCI lethal concentration, 50% cell kill)",SK-OV-3; Homo sapiens,> 100 µM
same,GI50,SK-OV-3; [2],3.55 µM
same,TGI Concentration/Cell Line,SK-OV-3,7.53 µM
same,GI50,HOP-92; [2],1.91 µM
same,CC50,HOP-92; [3],> 100 µM
same,TGI Concentration/Cell Line,HOP-92,9.14 µM
same,GI50,A549/ATCC; [2],2.83 µM
same,CC50,A549/ATCC; [3],> 100 µM
same,TGI Concentration/Cell Line,A549/ATCC,8.00 µM
same,GI50,EKVX; [2],1.91 µM
same,CC50,EKVX; [3],9.38 µM
same,TGI Concentration/Cell Line,EKVX,4.23 µM
same,Pgp-Mediated MDR Fold Change,[1],1.15 fold
same,LC50 (50% lethal concentration),NCI-H460; Homo sapiens,8.82 µM
same,GI50,NCI-H460; [2],2.08 µM
same,TGI Concentration/Cell Line,NCI-H460,4.29 µM
same,LC50,RPMI-8226; Homo sapiens,> 100 µM
same,GI50,RPMI-8226; [2],2.15 µM
same,TGI Concentration/Cell Line,RPMI-8226,5.69 µM
same,percentage of cells in late apoptosis (upper right quadrant),SR cancer cell line,19%
same,GI50,CAKI-1; [2],1.52 µM
same,CC50,CAKI-1; [3],9.78 µM
same,TGI Concentration/Cell Line,CAKI-1,3.00 µM
same,TGI Concentration/Cell Line,SW-620,3.66 µM
same,LC50 (concentration killing 50% of cells),SW-620; Homo sapiens,7.23 µM
same,GI50,SW-620; [2],1.85 µM
same,GI50,ACHN; [2],1.78 µM
same,CC50,ACHN; [3],6.08 µM
same,TGI Concentration/Cell Line,ACHN,3.29 µM
same,TGI Concentration/Cell Line,HCT-116,3.66 µM
same,LC50,HCT-116; Homo sapiens,7.51 µM
same,GI50,HCT-116; [2],1.79 µM
same,TGI Concentration/Cell Line,KM12,4.15 µM
same,GI50,KM12; [2],2.03 µM
same,CC50,KM12; [3],8.51 µM
same,GI50 Selectivity Ratio (MID^a: MID^b),Colon Cancer subpanel; Colon Cancer subpanel,1.24
same,TGI Selectivity Ratio (MID^c: MID^d),Colon Cancer subpanel; Colon Cancer subpanel,5.34
same,TGI Subpanel MID^d,Colon Cancer subpanel; Colon Cancer subpanel average,3.95 µM
same,GI50,"Colon Cancer subpanel; Colon Cancer subpanel average, read-out: GI50 Subpanel MID^b",1.91 µM
same,GI50,"Colon Cancer subpanel; colon cancer subpanel, read-out: GI50 values range, subpanel",1.78 to 2.13 µM
same,GI50,"Renal Cancer subpanel; Homo sapiens, Renal Cancer subpanel average, read-out: GI50 Subpanel MID^b",1.86 µM
same,GI50 Selectivity Ratio (MID^a: MID^b),Renal Cancer subpanel; Renal Cancer subpanel,1.28
same,TGI Selectivity Ratio (MID^c: MID^d),Renal Cancer subpanel; Renal Cancer subpanel,1.27
same,TGI Subpanel MID^d,Renal Cancer subpanel; Renal Cancer subpanel average,16.6 µM
same,GI50 Selectivity Ratio (MID^a: MID^b),Breast Cancer subpanel; Breast Cancer subpanel,1.05
same,TGI Selectivity Ratio (MID^c: MID^d),Breast Cancer subpanel; Breast Cancer subpanel,0.87
same,TGI Subpanel MID^d,Breast Cancer subpanel; Breast Cancer subpanel average,24.3 µM
same,GI50,"Breast Cancer subpanel; Breast Cancer subpanel average, read-out: GI50 Subpanel MID^b",2.27 µM
same,GI50,"Breast Cancer subpanel; breast cancer subpanel, read-out: GI50 values range, subpanel",1.54 to 1.87 µM
same,GI50,"Ovarian Cancer subpanel; Ovarian Cancer subpanel average, read-out: GI50 Subpanel MID^b",2.59 µM
same,GI50,"Ovarian Cancer subpanel; ovarian cancer subpanel, read-out: GI50 values range, subpanel",1.66 to 3.55 µM
same,GI50 Selectivity Ratio (MID^a: MID^b),Ovarian Cancer subpanel; Ovarian Cancer subpanel,0.92
same,TGI Selectivity Ratio (MID^c: MID^d),Ovarian Cancer subpanel; Ovarian Cancer subpanel,1.14
same,TGI Subpanel MID^d,Ovarian Cancer subpanel; Ovarian Cancer subpanel average,18.5 µM
same,GI50 Selectivity Ratio (MID^a: MID^b),CNS Cancer subpanel; CNS Cancer subpanel,0.88
same,TGI Selectivity Ratio (MID^c: MID^d),CNS Cancer subpanel; CNS Cancer subpanel,1.08
same,TGI Subpanel MID^d,CNS Cancer subpanel; CNS Cancer subpanel average,19.5 µM
same,GI50,"CNS Cancer subpanel; Homo sapiens, CNS Cancer subpanel average, read-out: GI50 Subpanel MID^b",2.71 µM
same,GI50,"Melanoma subpanel; Homo sapiens, Melanoma subpanel average, read-out: GI50 Subpanel MID^b",3.77 µM
same,GI50 Selectivity Ratio (MID^a: MID^b),Melanoma subpanel; Melanoma subpanel,0.63
same,TGI Selectivity Ratio (MID^c: MID^d),Melanoma subpanel; Melanoma subpanel,0.58
same,TGI Subpanel MID^d,Melanoma subpanel; Melanoma subpanel average,36.5 µM
same,GI50,"Prostate Cancer subpanel; Homo sapiens, Prostate Cancer subpanel average, read-out: GI50 Subpanel MID^b",3.41 µM
same,GI50 Selectivity Ratio (MID^a: MID^b),Prostate Cancer subpanel; Prostate Cancer subpanel,0.69
same,TGI Selectivity Ratio (MID^c: MID^d),Prostate Cancer subpanel; Prostate Cancer subpanel,5.89
same,TGI Subpanel MID^d,Prostate Cancer subpanel; Prostate Cancer subpanel average,3.58 µM
same,GI50,"Leukemia subpanel; Leukemia subpanel average, read-out: GI50 Subpanel MID^b",2.72 µM
same,GI50,"Leukemia subpanel; leukemia subpanel, read-out: GI50 values range, subpanel",2.15 to 3.15 µM
same,GI50 Selectivity Ratio (MID^a: MID^b),Leukemia subpanel; Leukemia subpanel,0.88
same,TGI Subpanel MID^d,Leukemia subpanel; Leukemia subpanel average,81.1 µM
same,LC50,UO-31; Homo sapiens,6.2 µM
same,GI50,UO-31; [2],1.53 µM
same,TGI Concentration/Cell Line,UO-31,3.08 µM
same,TGI Concentration/Cell Line,SNB-75,>100 µM
same,LC50,SNB-75; Homo sapiens,> 100 µM
same,GI50,SNB-75; [2],5.44 µM
same,TGI Concentration/Cell Line,HCC-2998,3.45 µM
same,LC50,HCC-2998; Homo sapiens,6.68 µM
same,GI50,HCC-2998; [2],1.78 µM
